Test results reported in patent US20260293894A1, “FUSED PYRROLIDINE-2-ONE HERBICIDAL COMPOUNDS” (SYNGENTA CROP PROTECTION AG, priority 2023, published 2026).

Key:
Assay type in all cases: in vivo
Conditions in all cases: 1000 g/Ha, evaluated after 13 days, glasshouse
Setaria faberi (SETFA) [1] = experiment: Pre-emergence herbicidal activity, percentage damage to SETFA
Description: (§1) Seeds of a variety of test species are sown in standard soil in pots Amaranthus palmeri (AMAPA), Amaranthus retroflexus (AMARE), Setaria faberi (SETFA), Echinochloa crus-galli (ECHCG), Ipomoea hederacea (IPOHE),). After cultivation for one day (pre-emergence) or after 8 days cultivation (post-emergence) under controlled conditions in a glasshouse (at 24/160C, day/night; 14 hours light; 65% humidity), the plants are sprayed with an aqueous spray solution derived from the dissolution of the technical active ingredient in a small amount of acetone and a special solvent and emulsifier mixture referred to as IF50 (11.12% Emulsogen EL360 TM+44.44% N-methylpyrrolidone+44.44% Dowanol DPM glycol ether, which was then diluted to required concentration using 0.2% Genapol XO80 (CAS No. 9043-30-5) in water as the diluent. Compounds are applied at the rates stated. The test plants are then grown in a glasshouse under controlled conditions in a glasshouse (at 24/160C, day/night; 14 hours light; 65% humidity) and watered twice daily. After 13 days for pre and post-emergence, the test is evaluated for the percentage damage caused to the plant. The biological activities are shown in the following table on a five-point scale (5=81-100%; 4=61-80%; 3=41-60%; 2=21-40%; 1=0-20%; NT=not tested).

[2] = system: Echinochloa crus-galli (ECHCG); experiment: Pre-emergence herbicidal activity, percentage damage to ECHCG
Description: as §1

[3] = system: Amaranthus palmeri (AMAPA); experiment: Pre-emergence herbicidal activity, percentage damage to AMAPA
Description: as §1

[4] = system: Amaranthus retroflexus (AMARE); experiment: Pre-emergence herbicidal activity, percentage damage to AMARE
Description: as §1

[5] = system: Ipomoea hederacea (IPOHE); experiment: Pre-emergence herbicidal activity, percentage damage to IPOHE
Description: as §1

Setaria faberi (SETFA) [6] = experiment: Post-emergence herbicidal activity, percentage damage to SETFA
Description: as §1

[7] = system: Echinochloa crus-galli (ECHCG); experiment: Post-emergence herbicidal activity, percentage damage to ECHCG
Description: as §1

[8] = system: Amaranthus palmeri (AMAPA); experiment: Post-emergence herbicidal activity, percentage damage to AMAPA
Description: as §1

[9] = system: Amaranthus retroflexus (AMARE); experiment: Post-emergence herbicidal activity, percentage damage to AMARE
Description: as §1

[10] = system: Ipomoea hederacea (IPOHE); experiment: Post-emergence herbicidal activity, percentage damage to IPOHE
Description: as §1

| Compound | percentage damage caused to the plant (SETFA) (Setaria faberi (SETFA) [1]) | percentage damage caused to the plant (ECHCG) [2] | percentage damage caused to the plant (AMAPA) [3] | percentage damage caused to the plant (AMARE) [4] | percentage damage caused to the plant (IPOHE) [5] | percentage damage caused to the plant (SETFA) (Setaria faberi (SETFA) [6]) | percentage damage caused to the plant (ECHCG) [7] | percentage damage caused to the plant (AMAPA) [8] | percentage damage caused to the plant (AMARE) [9] | percentage damage caused to the plant (IPOHE) [10] |
| --- | --- | --- | --- | --- | --- | --- | --- | --- | --- | --- |
| COC(=O)C[C@H]1[C@@H]2C[C@@H]2C(=O)N1Cc1cccc(F)c1F (relative stereo) [A.10, methyl 2-[(1R*,2S*,5S*)-3-[(2,3-difluorophenyl)methyl]-4-oxo-3-azabicyclo[3.1.0]hexan-2-yl]acetate] | 4 (61-80%) | 1 (0-20%) | 2 (21-40%) | 2 (21-40%) | 1 (0-20%) | 4 (61-80%) | 2 (21-40%) | 1 (0-20%) | 2 (21-40%) | 2 (21-40%) |
| O=C(O)C[C@H]1[C@@H]2C[C@@H]2C(=O)N1Cc1cccc(F)c1F (relative stereo) [Compound A.04, 2-[(1R*,2S*,5S*)-3-[(2,3-difluorophenyl)methyl]-4-oxo-3-azabicyclo[3.1.0]hexan-2-yl]acetic acid] | 3 (41-60%) | 2 (21-40%) | 2 (21-40%) | 2 (21-40%) | 1 (0-20%) | 4 (61-80%) | 3 (41-60%) | 1 (0-20%) | 1 (0-20%) | 1 (0-20%) |
| O=C(O)C[C@@H]1[C@@H]2CCCC[C@@H]2C(=O)N1Cc1cccc(F)c1F (relative stereo) [E.01, 2-[(1R*,3aS*,7aR*)-2-[(2,3-difluorophenyl)methyl]-3-oxo-3a,4,5,6,7,7a-hexahydro-1H-isoindol-1-yl]acetic acid] | 1 (0-20%) | 2 (21-40%) | 3 (41-60%) | 3 (41-60%) |  | 1 (0-20%) | 1 (0-20%) | 1 (0-20%) | 1 (0-20%) | 1 (0-20%) |
| COC(=O)C[C@@H]1[C@@H]2C[C@@H]2C(=O)N1Cc1cccc(F)c1F (relative stereo) [Compound A.07, methyl 2-[(1R*,2R*,5S*)-3-[(2,3-difluorophenyl)methyl]-4-oxo-3-azabicyclo[3.1.0]hexan-2-yl]acetate] | 5 (81-100%) | 4 (61-80%) | 3 (41-60%) | 4 (61-80%) | 2 (21-40%) | 4 (61-80%) | 3 (41-60%) | 3 (41-60%) | 3 (41-60%) | 3 (41-60%) |
| O=C(O)C[C@@H]1[C@@H]2C[C@@H]2C(=O)N1Cc1ccccc1F (relative stereo) [A.61, 2-[(1R*,2R*,5S*)-3-[(2-fluorophenyl)methyl]-4-oxo-3-azabicyclo[3.1.0]hexan-2-yl]acetic acid] | 5 (81-100%) | 3 (41-60%) | 4 (61-80%) | 5 (81-100%) | 1 (0-20%) | 5 (81-100%) | 3 (41-60%) | 3 (41-60%) | 4 (61-80%) | 3 (41-60%) |
